Test results as given in paper PMC9169680 (Science (New York, N.Y.), 2022).

Legend:
[1] = molecular target: Tt-CI (Tetrahymena thermophila complex I, in Tt-SC I+III2) (Tetrahymena thermophila, UniProt Q23KE4); experiment: cryo-EM structure; assay type: binding; details: 2.6 Å nominal resolution; native bound cofactor of the peripheral arm
[2] = molecular target: Tetrahymena thermophila complex III protomer (Tt-CIII) (Tetrahymena thermophila (endogenous)); experiment: cryo-EM structure

Sequence of Tt-CI (Tetrahymena thermophila complex I, in Tt-SC I+III2) (Q23KE4 32-474): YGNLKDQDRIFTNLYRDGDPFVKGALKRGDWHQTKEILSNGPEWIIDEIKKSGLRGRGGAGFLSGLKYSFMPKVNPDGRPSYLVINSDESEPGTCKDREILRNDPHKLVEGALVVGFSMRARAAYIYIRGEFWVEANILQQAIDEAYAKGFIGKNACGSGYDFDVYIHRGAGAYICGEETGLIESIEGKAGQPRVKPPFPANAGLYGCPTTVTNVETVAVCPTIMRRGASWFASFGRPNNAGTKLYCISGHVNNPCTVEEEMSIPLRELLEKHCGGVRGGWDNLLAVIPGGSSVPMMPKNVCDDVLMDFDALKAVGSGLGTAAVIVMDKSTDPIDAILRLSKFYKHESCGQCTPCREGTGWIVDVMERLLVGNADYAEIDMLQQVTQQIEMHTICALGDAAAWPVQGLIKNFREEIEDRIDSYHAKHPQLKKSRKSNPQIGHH
Sequence of Tt-CI (Tetrahymena thermophila complex I, in Tt-SC I+III2) (Q951B1 1-442 partner): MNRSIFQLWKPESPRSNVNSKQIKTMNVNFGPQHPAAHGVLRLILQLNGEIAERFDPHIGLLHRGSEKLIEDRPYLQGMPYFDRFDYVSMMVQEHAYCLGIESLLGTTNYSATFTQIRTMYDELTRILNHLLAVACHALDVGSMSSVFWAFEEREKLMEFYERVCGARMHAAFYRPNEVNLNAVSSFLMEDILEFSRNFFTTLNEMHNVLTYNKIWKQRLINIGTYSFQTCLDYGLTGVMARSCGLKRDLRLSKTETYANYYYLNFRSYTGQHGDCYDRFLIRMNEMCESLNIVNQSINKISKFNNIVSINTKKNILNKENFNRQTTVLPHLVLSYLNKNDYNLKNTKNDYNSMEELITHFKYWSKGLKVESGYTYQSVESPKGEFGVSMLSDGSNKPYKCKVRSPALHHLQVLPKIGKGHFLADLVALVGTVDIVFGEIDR
Sequence of Tt-CI (Tetrahymena thermophila complex I, in Tt-SC I+III2) (Q951B4 1-162 partner): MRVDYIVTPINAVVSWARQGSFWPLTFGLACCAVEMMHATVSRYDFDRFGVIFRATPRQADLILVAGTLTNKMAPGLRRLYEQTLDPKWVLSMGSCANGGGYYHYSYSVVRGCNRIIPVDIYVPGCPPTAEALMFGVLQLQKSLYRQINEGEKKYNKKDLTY
Sequence of Tt-CI (Tetrahymena thermophila complex I, in Tt-SC I+III2) (Q950Z7 1-121 partner): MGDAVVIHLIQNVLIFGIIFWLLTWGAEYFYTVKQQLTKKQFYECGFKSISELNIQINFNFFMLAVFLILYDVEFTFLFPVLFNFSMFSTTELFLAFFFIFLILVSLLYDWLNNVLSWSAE

Compound | cryo-EM structure [1] | stoichiometry N [2]
Cc1cc2nc3c(=O)[nH]c(=O)nc-3n(C[C@H](O)[C@H](O)[C@H](O)COP(=O)(O)O)c2cc1C [flavin mononucleotide] | relative locations of the flavin mononucleotide (FMN) co-factor and eight ironsulfur clusters | 
Tetrahymena thermophila complex III protomer (Tt-CIII) |  | 2
